Laboratory results from patent US20120046273A1, “COMPOUNDS AND COMPOSITIONS FOR COGNITION-ENHANCEMENT, METHODS OF MAKING, AND METHODS OF TREATING” (MITHRIDION, INC., priority 2009, published 2012).

Tests used:
[1] = molecular target: T1, human muscarinic M1 receptors (Homo sapiens, UniProt P11229); assay: Inositol phosphate production in huM1/A9L cells (IPOne TR-FRET); assay type: cell-based; conditions: for huM1/A9L Smax: percentage of maximal stimulation by carbachol; for huM1/A9L ED50 relative to CCh: potency relative to carbachol
T1 construct: expressed in transfected cells; host or cells: A9L cells (gift from Professor W Messer)
T1 sequence (P11229 1-460): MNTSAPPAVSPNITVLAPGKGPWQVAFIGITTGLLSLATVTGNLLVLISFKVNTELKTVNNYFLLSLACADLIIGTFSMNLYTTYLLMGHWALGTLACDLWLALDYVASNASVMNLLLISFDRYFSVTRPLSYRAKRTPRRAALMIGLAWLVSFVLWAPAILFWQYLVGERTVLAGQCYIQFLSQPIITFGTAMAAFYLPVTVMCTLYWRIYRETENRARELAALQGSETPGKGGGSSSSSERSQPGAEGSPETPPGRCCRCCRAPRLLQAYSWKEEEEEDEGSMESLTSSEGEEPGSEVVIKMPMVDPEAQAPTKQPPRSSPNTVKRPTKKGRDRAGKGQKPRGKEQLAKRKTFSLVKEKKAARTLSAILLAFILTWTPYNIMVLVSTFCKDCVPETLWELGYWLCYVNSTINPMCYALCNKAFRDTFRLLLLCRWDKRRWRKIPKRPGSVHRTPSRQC
Procedure: (§1) Muscarinic M1 and M3 agonist activity was evaluated by measuring the stimulation of inositol phosphate (IP) production in the presence of lithium chloride from A9L cells transfected with expression plasmids containing human muscarinic M1 and M3 receptors, respectively. The cell lines were a gift from Professor W Messer, and the methods were as described in Tejada F R et al. J. Med. Chem. 2006; 49: 7518-31 except that the assay was scaled down to run in 384 well plates, and IP was measured in the cell lysates using the non-isotopic IPOne TR-FRET assay (CIS-BIO, Inc).
(§2) Cells were grown to 90% confluence in 384 well hi-base plates (Greiner Bio-One), compounds were added at suitable concentrations in growth medium containing 10 mM LiCL, buffered with an extra 10 mM HEPES (pH7.4), and incubated for 60 minutes at 37° C. Cells were lysed and assayed for IP following the manufacturer's instructions.
(§3) The value for a full agonist is 100%, while partial agonists give values below 100%.

[2] = tested on: apomorphine induced climbing; assay: Apomorphine induced climbing model of psychosis; assay type: in vivo, CD-I mice; conditions: mice, sc
Procedure: As described in Costall et. al. European Journal of Pharmacology 1978, 50, 39. individual CD-I mice, 1-2 months old, were placed in a cylindrical wire mesh cage (13.2 cm high×13.2 cm diameter) constructed of steel wire 1 mm thick spaced at 1.2 cm^2. Cylinders were placed in a standard OptiMICE mouse cage (29×32×9×29 cm wide and 14 cm high) with adequate wood chip bedding provided. Observations of climbing (defined as 3 or more paws off the ground) were carried out every 5 minutes at a duration of 1 minute for 30 minutes. Animals were injected subcutaneously under isoflurane anesthesia with test compounds, reference compounds, which included clozapine, haloperidol, olanzapine and xanomeline, or PBS as a control. This was followed 5 minutes later by 2 mg/kg apomorphine hydrochloride. All drugs were dissolved in PBS or a mixture of (by volume) 96% PBS and 4% hydroxypropyl-beta-cyclodextrin, and dosed at a rate of 5 ml per kilogram of body weight. Following injections, animals were replaced in the mesh cages and observed for climbing (defined as 3 or more paws off the ground) every 5 minutes for a duration of 1 minute for 60 minutes after dosing.

[3] = tested on: pooled male Sprague-Dawley rat liver microsomes; assay: Metabolism by rat liver microsomes; assay type: in vitro ADME; conditions: 6 hours incubation
Procedure: Compounds were incubated with pooled male Sprague-Dawley rat liver microsomes (BD Biosciences, #452501) and an NADP-regenerating system in a phosphate buffer (pH 7.4) for a total of 6 hours. Aliquots were removed every 2 hours, and 1% formic acid was added to halt the reaction. Samples were centrifuged, filtered through 0.2 micron spinfilter and the amount of each compound in the supernatants was quantitated using LC/MS/MS.

[4] = tested on: pooled male human liver microsomes; assay: Metabolism by human liver microsomes; assay type: in vitro ADME; conditions: for extent of metabolism in human liver microsomes: 6 hours incubation; for rate of metabolism compared with the other enantiomer: human liver microsomes, as also in rat liver microsomes and FMO Supersomes
Procedure: Compounds were incubated with pooled male human liver microsomes (BD Biosciences, #452172) and an NADP-regenerating system in a phosphate buffer (pH 7.4) for a total of 6 hours. Aliquots were removed every 2 hours, and 1% formic acid was added to halt the reaction. Samples were centrifuged, filtered through 0.2 micron spinfilter and the amount of each compound in the supernatants was quantitated using LC/MS/MS.

[5] = molecular target: T2, human muscarinic M3 receptors (Homo sapiens, UniProt P20309); assay: Inositol phosphate production in huM3/A9L cells (IPOne TR-FRET); assay type: cell-based; conditions: for huM3/A9L Smax: percentage of maximal stimulation by carbachol; for huM3/A9L ED50 relative to CCh: potency relative to carbachol
T2 construct: expressed in transfected cells; host or cells: A9L cells (gift from Professor W Messer)
T2 sequence (P20309 whole entry): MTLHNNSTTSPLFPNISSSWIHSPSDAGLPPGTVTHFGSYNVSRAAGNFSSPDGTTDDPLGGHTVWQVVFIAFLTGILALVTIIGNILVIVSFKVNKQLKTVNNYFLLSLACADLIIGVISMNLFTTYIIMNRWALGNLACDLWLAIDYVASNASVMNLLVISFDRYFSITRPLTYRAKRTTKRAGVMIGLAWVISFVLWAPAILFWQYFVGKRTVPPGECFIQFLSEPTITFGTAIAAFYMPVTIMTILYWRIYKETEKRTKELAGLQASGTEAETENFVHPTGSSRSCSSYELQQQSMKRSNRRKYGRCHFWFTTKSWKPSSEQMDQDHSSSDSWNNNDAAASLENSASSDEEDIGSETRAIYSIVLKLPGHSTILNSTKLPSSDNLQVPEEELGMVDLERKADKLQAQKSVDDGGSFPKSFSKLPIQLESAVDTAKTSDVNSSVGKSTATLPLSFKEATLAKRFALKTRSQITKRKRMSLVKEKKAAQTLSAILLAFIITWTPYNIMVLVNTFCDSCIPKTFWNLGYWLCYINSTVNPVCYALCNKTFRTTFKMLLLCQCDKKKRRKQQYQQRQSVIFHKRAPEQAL
Procedure: as §1, §2, §3

Structure (SMILES)	huM1/A9L Smax [1]	huM1/A9L ED50 relative to CCh [1]	activity in the apomorphine induced climbing model [2]	extent of metabolism in rat liver microsomes [3]	extent of metabolism in human liver microsomes [4]	rate of metabolism compared with the other enantiomer [4]	huM3/A9L Smax [5]	huM3/A9L ED50 relative to CCh [5]	PAMPA (? × 106) (PAMPA test)	rate of crossing the lipid layer in the PAMPA test (PAMPA test)
Cc1noc(C2CCCNC2)n1 (single isomer, unassigned) [Compound 83, 3-methyl-5-(piperidin-3-yl)-1,2,4-oxadiazole]	147%	+/− (potency 0.5-2x CCh)	potent and effective	far more stable than compounds 126 and 127	metabolized significantly less in human liver microsomes than in rat liver microsomes	metabolized faster than the enantiomers	47%	− (potency <0.5-0.1x CCh)	–	–
Cc1noc(C2CCCNC2)n1 (single isomer, unassigned) [Compound 84, 3-methyl-5-(piperidin-3-yl)-1,2,4-oxadiazole]	129%	+ (potency 2-10x CCh)	–	far more stable than compounds 126 and 127	metabolized significantly less in human liver microsomes than in rat liver microsomes	–	66%	+/− (potency 0.5-2x CCh)	–	–
[2H]C([2H])([2H])c1noc(C2CCCNC2)n1 (single isomer, unassigned) [Compound 89, 3-(methyl-d3)-5-(piperidin-3-yl)-1,2,4-oxadiazole]	90%	+ (potency 2-10x CCh)	potent and effective	far more stable than compounds 126 and 127	metabolized significantly less in human liver microsomes than in rat liver microsomes	metabolized faster than the enantiomers	86%	+/− (potency 0.5-2x CCh)	–	–
[2H]C([2H])([2H])c1noc(C2CCCNC2)n1 (single isomer, unassigned) [Compound 90, 3-(methyl-d3)-5-(piperidin-3-yl)-1,2,4-oxadiazole]	81%	+/− (potency 0.5-2x CCh)	–	far more stable than compounds 126 and 127	metabolized significantly less in human liver microsomes than in rat liver microsomes	–	76%	−− (potency <0.1x CCh)	–	–
Cc1noc(C2CCCN(C)C2)n1 (stereo not shown) [Compound 86, 3-Methyl-5-(1-methylpiperidin-3-yl)-1,2,4-oxadiazole]	20%	inactive	–	–	–	–	20%	inactive	–	–
Cc1noc(C2CCC(C)NC2)n1 (stereo not shown) [Compound 102, 3-Methyl-5-(6-methylpiperidin-3-yl)-1,2,4-oxadiazole]	14%	inactive	–	–	–	–	18%	inactive	–	–
Cc1noc([C@H]2CC[C@H](C)NC2)n1 [Compound 103]	15%	inactive	–	–	–	–	34%	inactive	–	–
Cc1noc([C@H]2CNC[C@@H](C)C2)n1 [Compound 104]	9%	inactive	–	–	–	–	20%	inactive	–	–
Cc1noc([C@@H]2CNC[C@@H](C)C2)n1 [Compound 105]	18%	inactive	–	–	–	–	14%	inactive	–	–
Cc1noc([C@@H]2CCCN[C@@H]2C)n1 [Compound 108]	41%	−− (potency <0.1x CCh)	–	–	–	–	32%	inactive	–	–
Cc1noc([C@H]2CCCN[C@@H]2C)n1 [Compound 109]	3%	inactive	–	–	–	–	20%	inactive	–	–
Nc1noc(C2CCCNC2)n1 (stereo not shown) [Compound 111, 3-Amino-5-(piperidin-3-yl)-1,2,4-oxadiazole]	97%	+ (potency 2-10x CCh)	–	–	–	–	20%	+/− (potency 0.5-2x CCh)	–	–
Cc1noc(C2CCNC2)n1 (stereo not shown) [Compound 115, 3-methyl-5-(pyrrolidin-3-yl)-1,2,4-oxadiazole]	–	+ (potency 2-10x CCh)	–	–	–	–	–	− (potency <0.5-0.1x CCh)	–	–
Cc1noc(C2(F)CCCNC2)n1 (stereo not shown) [Compound 118, 5-(3-fluoropiperidin-3-yl)-3-methyl-1,2,4-oxadiazole]	–	− (potency <0.5-0.1x CCh)	–	–	–	–	–	−− (potency <0.1x CCh)	16.3 ? × 106	highest rate of penetration
CCc1noc(C2CCCNC2)n1 (stereo not shown) [Compound 128, 3-ethyl-5-(piperidin-3-yl)-1,2,4-oxadiazole, reference compound]	15%	inactive	–	–	–	–	<14%	inactive	–	–
